Results reported in US9670150B2, “(2-ureidoacetamido)alkyl derivatives as formyl peptide receptor 2 modulators” (Allergan, Inc., priority 2012, dated 2017).
pEC50: −log10 of the molar value. Read-outs that look alike come from different tables or passages of the source.

Target: T1, FPR2 (Homo sapiens, UniProt P25090)
T1 construct: expressed in transfected cells; host or cells: CHO-Ga16 cells stably expressing FPR2
T1 sequence (P25090 1-351): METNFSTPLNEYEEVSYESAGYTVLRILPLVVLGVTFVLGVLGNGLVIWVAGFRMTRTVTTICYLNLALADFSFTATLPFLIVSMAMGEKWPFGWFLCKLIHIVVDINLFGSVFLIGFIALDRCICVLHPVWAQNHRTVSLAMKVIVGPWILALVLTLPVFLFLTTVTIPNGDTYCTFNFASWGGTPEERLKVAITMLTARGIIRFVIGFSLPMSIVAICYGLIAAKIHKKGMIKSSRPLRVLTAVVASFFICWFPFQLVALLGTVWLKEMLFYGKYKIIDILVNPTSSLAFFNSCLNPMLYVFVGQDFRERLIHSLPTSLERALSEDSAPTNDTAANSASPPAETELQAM
Experiment: compound-induced calcium activity on FLIPR Tetra in CHO-Ga16 cells stably expressing FPR2
Format: cell-based
Conditions: for Emax: efficacy value given as a fraction, read-out: FPR2 Ga16-CHO (0.% eff) efficacy
Method: CHO-Ga16 cells stably expressing FPR2 were cultured in (F12, 10% FBS, 1% PSA, 400 μg/ml geneticin and 50 μg/ml hygromycin) and HEK-Gqi5 cells stable expressing FPR2 were cultured in (DMEM high glucose, 10% FBS, 1% PSA, 400 μg/ml geneticin and 50 μg/ml hygromycin). In general, the day before the experiment, 18,000 cells/well were placed in a 384-well clear bottom poly-d-lysine coated plate. The following day the screening compound-induced calcium activity was assayed on the FLIPR^Tetra. The drug plates were prepared in 384-well microplates using the EP3 and the MuItiPROBE robotic liquid handling systems. Compounds were tested at concentrations ranging from 0.61 to 10,000 nM. Results are expressed as EC50 (nM) and efficacy values.

[1] = CHO-Ga16 cells stably expressing FPR2, calcium activity, FLIPR Tetra, concentrations 0.61 to 10,000 nM
[2] = CHO-Ga16 cells stably expressing FPR2

SMILES | pEC50 [1] | Emax [2] [%] | pEC50
CCOP(=O)(CNC(=O)[C@H](CC(C)C)NC(=O)Nc1ccc(Br)cc1)OCC [Compound 1, Diethyl({[(2S)-2-({[(4-bromophenyl)amino]carbonyl}amino)-4-methylpentanoyl]amino}methyl)phosphonate] | 9.23 | 100 | 
CC(C)C[C@H](NC(=O)Nc1ccc(Br)cc1)C(=O)NCc1nnn[nH]1 [Compound 2, (2S)-2-({[(4-Bromophenyl)amino]carbonyl}amino)-4-methyl-N-(1H-tetrazol-5-ylmethyl)pentanamide] | 8.64 | 81 | 
CC(C)C[C@H](NC(=O)Nc1ccc(Br)cc1)C(=O)NCCc1nnn[nH]1 [Compound 3, (2S)-2-({[(4-Bromophenyl)amino]carbonyl}amino)-4-methyl-N-[2-(1H-tetrazol-5-yl)ethyl]pentanamide] | 7.32 | 100 | 
CC(C)C[C@H](NC(=O)Nc1ccc(Br)cc1)C(=O)NCc1cc(O)no1 [Compound 4, (2S)-2-({[(4-Bromophenyl)amino]carbonyl}amino)-N-[(3-hydroxyisoxazol-5-yl)methyl]-4-methylpentanamide] | 7.92 | 100 | 
CCOP(=O)(CNC(=O)[C@@H](NC(=O)Nc1ccc(Br)cc1)[C@@H](C)CC)OCC [Compound 5, Diethyl ({[(2S,3S)-2-({[(4-bromophenyl)amino]carbonyl}amino)-3-methylpentanoyl]amino}methyl)phosphonate] | 8.62 | 100 | 
CCC[C@H](NC(=O)Nc1ccc(Br)cc1)C(=O)NCP(=O)(OCC)OCC [Compound 6, Diethyl ({[(2S)-2-({[(4-bromophenyl)amino]carbonyl}amino)pentanoyl]amino}methyl)phosphonate] | 9.54 | 94 | 
CCOP(=O)(CNC(=O)[C@H](Cc1ccccc1)NC(=O)Nc1ccc(Br)cc1)OCC [Compound 7, Diethyl ({[(2S)-2-({[(4-bromophenyl)amino]carbonyl}amino)-3-phenylpropanoyl]amino}methyl)phosphonate] | 7.70 | 98 | 
CCOP(=O)(CCNC(=O)[C@H](CC(C)C)NC(=O)Nc1ccc(Br)cc1)OCC [Compound 8, Diethyl (2-{[(2S)-2-({[(4-bromophenyl)amino]carbonyl}amino)-4-methylpentanoyl]amino}ethyl)phosphonate] | 8.74 | 100 | 
CCC[C@H](NC(=O)Nc1ccc(Br)cc1)C(=O)NCP(=O)(OC(C)C)OC(C)C [Compound 9, Diisopropyl ({[(2S)-2-({[(4-bromophenyl)amino]carbonyl}amino)pentanoyl]amino}methyl)phosphonate] | 9.10 | 94 | 
CC(C)C[C@H](NC(=O)Nc1ccc(Br)cc1)C(=O)NCP(=O)(OC(C)C)OC(C)C [Compound 10, Diisopropyl ({[2-({[(4-bromophenyl)amino]carbonyl}amino)-4-methylpentanoyl]amino}methyl)phosphonate] | 8.40 | 100 | 
CCOP(=O)(CNC(=O)[C@H](CC(C)C)NC(=O)Nc1ccc(C(F)(F)F)cc1)OCC [Compound 11, Diethyl [({(2S)-4-methyl-2-[({[4-(trifluoromethyl)phenyl]amino}carbonyl)amino]pentanoyl}amino)methyl]phosphonate] | 8.10 | 100 | 
CC(C)C[C@H](NC(=O)Nc1ccc(C(F)(F)F)cc1)C(=O)NCc1nnn[nH]1 [Compound 12, (2S)-4-methyl-N-(1H-tetrazol-5-ylmethyl)-2-[({[4-(trifluoromethyl)phenyl]amino}carbonyl)amino]pentanamide] | 8.40 | 91 | 
CC(C)C[C@H](NC(=O)Nc1ccc(C(F)(F)F)cc1)C(=O)NCS(=O)(=O)O [Compound 13, ({(2S)-4-methyl-2-[({[4-(trifluoromethyl)phenyl]amino}carbonyl)amino]pentanoyl}amino)methanesulfonic acid] | 8.80 | 100 | 
CCOP(=O)(CNC(=O)[C@H](CC(C)C)NC(=O)Nc1ccc(SC)cc1)OCC [Compound 14, Diethyl [({(2S)-4-methyl-2-[({[4-(methylthio)phenyl]amino}carbonyl)amino]pentanoyl}amino)methyl]phosphonate] | 8.68 | 90 | 
CCOP(=O)(O)CNC(=O)[C@H](CC(C)C)NC(=O)Nc1ccc(Br)cc1 [Compound 15, Ethyl hydrogen({[(2S)-2-({[(4-bromophenyl)amino]carbonyl}amino)-4-methylpentanoyl]amino}methyl)phosphonate] |  | 88 | 9.02
CCOP(=O)(O)CNC(=O)[C@@H](NC(=O)Nc1ccc(Br)cc1)[C@@H](C)CC [Compound 16, Ethyl hydrogen ({[(2S,3S)-2-({[(4-bromophenyl)amino]carbonyl}amino)-3-methylpentanoyl]amino}methyl)phosphonate] | 8.49 | 88 | 
CCC[C@H](NC(=O)Nc1ccc(Br)cc1)C(=O)NCP(=O)(O)OCC [Compound 17, Ethyl hydrogen ({[(2S)-2-({[(4-bromophenyl)amino]carbonyl}amino)pentanoyl]amino}methyl)phosphonate] |  | 94 | 9.00
CCOP(=O)(O)CNC(=O)[C@H](Cc1ccccc1)NC(=O)Nc1ccc(Br)cc1 [Compound 18, Ethyl hydrogen ({[(2S)-2-({[(4-bromophenyl)amino]carbonyl}amino)-3-phenylpropanoyl]amino}methyl)phosphonate] |  | 110 | 7.80
CCCC(NC(=O)Nc1ccc(Br)cc1)C(=O)NCP(=O)(O)OC(C)C (centres unmarked) [Compound 19, Iso-propyl hydrogen ({[2-({[(4-bromophenyl)amino]carbonyl}amino)pentanoyl]amino}methyl)phosphonate] | 8.73 | 89 | 
CCOP(=O)(O)CNC(=O)[C@H](CC(C)C)NC(=O)Nc1ccc(C(F)(F)F)cc1 [Compound 20, Ethyl hydrogen [({(2S)-4-methyl-2-[({[4-(trifluoromethyl)phenyl]amino}carbonyl)amino]pentanoyl}amino)methyl]phosphonate] | 8.70 | 95 | 
CCOP(=O)(O)CNC(=O)[C@H](CC(C)C)NC(=O)Nc1ccc(S(C)(=O)=O)cc1 [Compound 21, ethyl hydrogen [({(2S)-4-methyl-2-[({[4-(methylsulfonyl)phenyl]amino}carbonyl)amino]pentanoyl}amino)methyl]phosphonate] | 6.88 | 99 | 
CCC[C@H](NC(=O)Nc1ccc(Br)cc1)C(=O)NCP(=O)(O)O [Compound 22, ({[(2S)-2-({[(4-bromophenyl)amino]carbonyl}amino)pentanoyl]amino}methyl)phosphonic acid] | 7.49 | 94 | 
CC(C)C[C@H](NC(=O)Nc1ccc(C(F)(F)F)cc1)C(=O)NCP(=O)(O)O [Compound 23, [({(2S)-4-methyl-2-[({[4-(trifluoromethyl)phenyl]amino}carbonyl)amino]pentanoyl}amino)methyl]phosphonic acid] | 7.19 | 102 | 
CCOP(=O)(CNC(=O)[C@H](CC(C)C)NC(=O)Nc1ccc(S(C)(=O)=O)cc1)OCC [Compound 24, Diethyl[({(2S)-4-methyl-2-[({[4-(methylsulfonyl)phenyl]amino}carbonyl)amino]pentanoyl}amino)methyl]phosphonate] | 7.35 | 112 | 
CC(C)C[C@H](NC(=O)Nc1ccc(Br)cc1)C(=O)NCS(=O)(=O)O [{[(2S)-2-{[(4-Bromophenyl)carbamoyl]amino}-4-methylpentanoyl]amino}methanesulfonic acid] | 8.64 | 91 | 
